According to patent publication US7960397B2, “6,9-disubstituted purine derivatives and their use as cosmetics and cosmetic compositions” (Institute of Experimental Botany, Academy of Sciences of …, priority 2007, dated 2011):

Tests used:
[1] = system: cytokinin-dependent tobacco callus Nicotiana tabacum L. cv. Wisconsin 38; experiment: Cytokinin activity in tobacco callus bioassay; type: cell-based; conditions: for concentration with highest activity: growth of tobacco callus, four weeks of cultivation, tested 10^−8 M to 10^−4 M; for Activity (%) [10^−5 mol · l^−1 BAP = 100%]: increase of fresh callus weight at the concentration with highest activity, 10^−5 M BAP = 100%
Description: Estimation of cytokinin biological activity of novel compounds in callus bioassay. Cytokinin-dependent tobacco callus Nicotiana tabacum L. cv. […] Subcultivation was carried out every three weeks. Fourteen days before the bioassay, the callus tissue was transferred to the media without the compound tested. The biological activity was determined from the increase of the fresh callus weight after four weeks of cultivation. Five replicates were prepared for each concentration of the compound tested and the entire test was repeated twice. […] The relative activity of the compound at this concentration was calculated (Table 8). […] The compounds to be tested were dissolved in dimethylsulfoxide (DMSO) and the solution brought up to 10^−3 M with distilled water. This stock solution was further diluted with the respective media used for the biotest to a concentration ranging from 10^−8 M to 10^−4 M.

[2] = system: Amaranthus caudatus cotyledon/hypocotyl explants; experiment: Amaranthus bioassay (betacyanin content); design: species or system Amaranthus caudatus var. atropurpurea; conditions: for concentration with highest activity: betacyanin content after 48 h incubation, tested 10^−8 M to 10^−4 M; for Activity (%) [10^−5 mol · l^−1 BAP = 100%]: betacyanin content at the concentration with highest activity, 10^−5 M BAP = 100%
Description: Testing of novel compounds for typical cytokinin activity in Amaranthus bioassay. A standard Amaranthus bioassay was performed with several modifications. The seeds of Amaranthus caudatus var. atropurpurea were surface-sterilized in 10% (w/v) N-chlorobenzenesulfonamide for 10 min and washed 5 times with deionized water. They were placed in 14 cm Petri dishes containing paper tissues saturated with deionized water. After 72 h of cultivation at 25° C. in darkness, the roots of the seedlings were cut off. The explants, consisting of two cotyledons and hypocotyls, were placed in 5 cm Petri dishes onto two layers of filter paper soaked with 1 ml of the incubation medium containing 10 mmol of NA2HPO4—KH2PO4, pH 6.8, 5 mmol of tyrosine and the compound to be tested. There were 20 explants per dish. The procedure was carried out under a green safe light in a darkroom. […] The concentration of betacyanin was determined from the absorbencies at 537 nm and 620 nm as follows: DA=A537 nm−A620 nm. […] Relative activity of the compound at this concentration was calculated. The activity obtained for 10^−5 M 6-benzylaminopurine (BAP) was defined as 100%.
(§1) The compounds to be tested were dissolved in dimethylsulfoxide (DMSO) and the solution brought up to 10^−3 M with distilled water.

excised wheat leaf tips = experiment: Antisenescence test, retention of chlorophyll in excised wheat leaf tips; design: species or system Triticum aestivum cv. Hereward; conditions: for activity (%) [10^−4 mol · l^−1 BAP = 100%]: retention of chlorophyll in excised wheat leaf tips at the concentration with highest activity, 10 replicate determinations; for concentration with highest activity: retention of chlorophyll in excised wheat leaf tips, tested range 10^−8 M to 10^−4 M, 96 h in the dark at 25° C.
Description: Testing of antisenescence properties of novel cytokinin compounds on wheat leaf segments. Seeds of winter wheat, Triticum aestivum cv. Hereward, were washed under running water for 24 hours and then sown on vermiculite soaked with the Knop's solution. They were placed in the grow chamber at 25° C. with a 16 h-8 h light period at 50 mmol.m^−2.s^−1. After 7 days, the first leaf was fully developed and the second leaf had started to grow. A 35 mm long tip section of the first leaf, was removed from each of 5 seedlings and trimmed slightly to a combined weight of 100 mg. The basal ends of the five leaf tips were placed in the wells of a microtiter polystyrene plate containing […] of the solution of the tested compound each. The entire plate was inserted into a plastic box lined with paper tissues soaked with distilled water to prevent leaf sections from drying out. After 96 h incubation in the dark at 25° C., the leaves were removed and chlorophyll was extracted by heating at 80° C. for 10 min in 5 ml of 80% ethanol (v/v). The sample volume was then restored to 5 ml by the addition of 80% ethanol (v/v). The absorbance of the extract was recorded at 665 nm. In addition, chlorophyll extracts from fresh leaves and leaf tips incubated in deionized water were measured. […] Relative activity of the compound at this concentration was calculated (Table 7). The activity obtained for 10^−4 M 6-benzylaminopurine (BAP) was defined as 100%. The values shown are means of five replicates and the whole experiment was repeated twice.
as §1

[3] = system: human diploid fibroblasts (HCA cells, HCA20, HCA40, HCA60); experiment: Senescent cells (β-galactosidase staining) in culture of human fibroblasts; type: cell-based
Description: In this example, human diploid fibroblasts (HCA cells of various passage levels: passage 20—designated HCA20; passage 40—designated HCA40; passage 60—designated HCA60) were stained for β-galactosidase activity. The medium used for the cell cultivation was removed, the cells were washed twice in […], and fixed in 2-3 ml of fixing solution comprised of a 2% formaldehyde and 0.2% glutaraldehyde in PBS. The cells were incubated at room temperature for 5 minutes, and then washed twice with PBS. The cells were subsequently incubated at 37° C.

SMILES | concentration with highest activity [1] | Activity (%) [10^−5 mol · l^−1 BAP = 100%] [1] | concentration with highest activity [2] | Activity (%) [10^−5 mol · l^−1 BAP = 100%] [2] | activity (%) [10^−4 mol · l^−1 BAP = 100%] (excised wheat leaf tips) | concentration with highest activity (excised wheat leaf tips) | SENESCENT CELLS (%) HCA20 ([3]; human fibroblasts passage 20 (HCA20)) | SENESCENT CELLS (%) HCA40 ([3]; human fibroblasts passage 40 (HCA40)) | SENESCENT CELLS (%) HCA60 ([3]; human fibroblasts passage 60 (HCA60))
Cc1cc(Nc2ncnc3c2ncn3C2CCCO2)ccc1O (stereo not shown) | 10^−5 mol · l^−1 | 7% | 10^−4 mol · l^−1 | 6% | 4% | 10^−4 mol · l^−1 | – | – | –
CCOC(C)n1cnc2c(NCCC(C)CO)ncnc21 (stereo not shown) | 10^−4 mol · l^−1 | 95% | 10^−4 mol · l^−1 | 85% | 94% | 10^−4 mol · l^−1 | – | – | –
Oc1ccc(CNc2ncnc3c2ncn3C2CCCCO2)c(O)c1 (stereo not shown) | 10^−5 mol · l^−1 | 5% | – | – | – | – | – | – | –
CC(CO)CCNc1ncnc2c1ncn2CCCCCl (stereo not shown) | 10^−4 mol · l^−1 | 84% | 10^−4 mol · l^−1 | 81% | 89% | 10^−4 mol · l^−1 | – | – | –
Oc1ccc(Nc2ncnc3c2ncn3C2CCCO2)cc1 (stereo not shown) [4-hydroxyanilino / tetrahydrofuran-2-yl] | 10^−5 mol · l^−1 | 10% | 10^−4 mol · l^−1 | 22% | 28% | 10^−4 mol · l^−1 | – | – | –
COc1cc(CNc2ncnc3c2ncn3C2CCCO2)cc(OC)c1O (stereo not shown) | 10^−5 mol · l^−1 | 27% | 10^−4 mol · l^−1 | 2% | 36% | 10^−4 mol · l^−1 | – | – | –
Oc1cccc(CNc2ncnc3c2ncn3CCCCCl)c1 [3-hydroxybenzylamino / 4-chlorobutyl] | 10^−4 mol · l^−1 | 111.6% | 10^−4 mol · l^−1 | 102.5% | 102.5% | 10^−4 mol · l^−1 | – | – | –
Oc1cc(O)cc(CNc2ncnc3c2ncn3C2CCCCO2)c1 (stereo not shown) | 10^−6 mol · l^−1 | 45% | 10^−5 mol · l^−1 | 53% | 145% | 10^−4 mol · l^−1 | – | – | –
Oc1ccc(O)c(CNc2ncnc3c2ncn3C2CCCCO2)c1 (stereo not shown) | 10^−5 mol · l^−1 | 20% | 10^−4 mol · l^−1 | 35.1% | 15% | 10^−4 mol · l^−1 | – | – | –
COc1cccc(CNc2ncnc3[nH]cnc23)c1O [2-hydroxy-3-methoxybenzylamino / H, reference compound] | – | – | 10^−4 mol · l^−1 | 19% | 34% | 10^−4 mol · l^−1 | – | – | –
Cc1cc(CNc2ncnc3c2ncn3C2CCCO2)ccc1O (stereo not shown) [4-hydroxy-3-methylbenzylamino / tetrahydrofuran-2-yl] | 10^−5 mol · l^−1 | 12% | 10^−4 mol · l^−1 | 2% | 1.4% | 10^−4 mol · l^−1 | – | – | –
COc1cccc(CNc2ncnc3c2ncn3CCCCCl)c1O | – | – | 10^−4 mol · l^−1 | 53% | – | – | – | – | –
CCOC(C)n1cnc2c(NCc3cccc(O)c3)ncnc21 (stereo not shown) [3-hydroxybenzylamino / 1-ethoxyethyl] | 10^−4 mol · l^−1 | 109.4% | 10^−4 mol · l^−1 | 108.2% | 108.2% | 10^−4 mol · l^−1 | – | – | –
Oc1cc(O)cc(CNc2ncnc3[nH]cnc23)c1 [3,5-dihydroxybenzylamino / H, reference compound] | 10^−6 mol · l^−1 | 39% | 10^−5 mol · l^−1 | 53% | 134% | 10^−4 mol · l^−1 | – | – | –
Oc1ccc(Nc2ncnc3c2ncn3C2CCCCO2)cc1 (stereo not shown) [4-hydroxyanilino / tetrahydropyran-2-yl, 6-(4-hydroxyanilino)-9-(tetrahydropyran-2-yl)-purine] | 10^−5 mol · l^−1 | 22% | 10^−4 mol · l^−1 | 32% | – | – | 4% | 6% | 16%
Oc1ccccc1CNc1ncnc2c1ncn2CCCCCl [2-hydroxybenzylamino / 4-chlorobutyl] | – | – | 10^−4 mol · l^−1 | 47.5% | 47.5% | 10^−4 mol · l^−1 | – | – | –
COc1ccc(CNc2ncnc3c2ncn3C2CCCO2)cc1O (stereo not shown) | 10^−6 mol · l^−1 | 47% | 10^−4 mol · l^−1 | 32% | 35% | 10^−4 mol · l^−1 | – | – | –
CC(CO)CCNc1ncnc2[nH]cnc12 (stereo not shown) [4-hydroxy-3-methylbutylamino / H, reference compound] | 10^−5 mol · l^−1 | 83.2% | 10^−4 mol · l^−1 | 75% | 89% | 10^−4 mol · l^−1 | – | – | –
Cc1cc(CNc2ncnc3c2ncn3C2CCCO2)ccc1O (stereo not shown) [4-hydroxy-5-methylbenzylamino / tetrahydrofuran-2-yl] | 10^−5 mol · l^−1 | 2% | 10^−4 mol · l^−1 | 22% | 17% | 10^−4 mol · l^−1 | – | – | –
COc1cc(O)cc(OC)c1CNc1ncnc2c1ncn2C1CCCO1 (stereo not shown) | 10^−5 mol · l^−1 | 31% | 10^−4 mol · l^−1 | 7% | 14% | 10^−4 mol · l^−1 | – | – | –
